Consider 1 compound from patent US6610763B1, “Polymer composition, the production and further processing thereof into receptacles” (priority 1998, dated 2003).

Data set [1] concerns Klebsiella pneumoni (ATCC 4352) and Staphylococcus aureus (ATCC 6538). As to the kind of experiment: inhibiting zone test on agar plates. Format: cell-based. The conditions noted are these: various concentrations on 6-mm filter disks, approximately 16 hours of incubation on agar plates, FIG. 1. As for the experimental part:
For purposes of determining the concentration by means of the inhibiting zone tests, Klebsiella pneumoni (ATCC 4352) and Staphylococcus aureus (ATCC 6538) were bred on casein soy-meal broth (CM, oxoid), then plated out onto casein-peptone soy-meal agar (CM 131, oxoid) and incubated at 37° C. [98.6° F.]. Up to 50 μl of Irgasan DP 300 were applied onto 6-mm filter disks.
For this purpose, first of all, a test was drawn up that makes it possible to quantitatively detect the anti-microbial effect of test specimens containing 0.2% Irgasan DP 300 and Irgasan DP 300 as a pure substance. In order to examine the migration of the additive and the sensitivity of various test germs, an inhibiting zone test was conducted: test specimens were incubated on agar plates that had been inoculated with these germs. As indicators, two microorganisms were employed whose minimum inhibiting concentration (MIC) with respect to Irgasan DP 300 was between 0.01 ppm and 0.3 ppm, according to information provided by the manufacturer. The kinetics of the release of active ingredient into an aqueous solution were examined by incubating test specimens in a defined volume and by subsequently evaluating them with a spectroscope as well as in the inhibiting zone test. Both methods were calibrated by means of parallel batches with the pure substance. […]

A short description of data set [2]: saturation concentration in water. The following applies: room temperature. The data set is classed as physicochemical.
For data set [3] the following is noted: in vivo; cited from earlier work.

SMILES strings stand for the structures.

Consider `Oc1cc(Cl)ccc1Oc1ccc(Cl)cc1Cl` [Irgasan DP 300, 2,4,4′-trichloro-2′-hydroxydiphenyl ether], for which the “microbial growth in inhibiting zones” value in data set [1] is reported as “do not exhibit any microbial growth”. In addition, the “saturation concentration in water” value in data set [2] was “about 10 ppm”. Moreover, in data set [3], the “accumulation in the body” value was “does not accumulate in the body” and the “toxicity in view of LD50 value” is on record as “practically non-toxic”.
